According to US10039806B2, “Methods and compositions for treating antiprogestin-resistant cancers” (Fundación Sales, priority 2011, dated 2018):

How the values were obtained:
breast cancer samples = test: Cultured breast cancer slices (chopper), Ki67; assay type: cell-based, human; conditions: 10 nM, 48 hs
Text: Sections of formalin-fixed, paraffin-embedded tissue were stained with PR (C-19), or Ki67 (Dako, […]) antibodies using the avidin-biotin-peroxidase complex technique (Vectastain Elite ABC kit; Vector), as described previously (6). Positive cells were counted in 10 high-power fields (HPFs) of each section, using 1000× magnification, and expressed as the mean±SEM of the ratio between the number of positive events and the total cell number. Following the previous experiments shown in PART 1, breast cancer samples obtained after surgery from the Hospital General Pacheco (IRB approved by Hospital and IBYME) were used. Whenever possible, part of the sample is immediately frozen to be used in Western blot studies, other part is fixed to be used in IHC studies and a similar part is kept in medium culture. Slices obtained using a chopper were cultured for 48 hs with DMEM/F12 without phenol red and 10% fetal cal serum with or without MFP 10 nM. Tumor slices were then fixed, paraffin embedded and processed for immunohistochemistry. Cell proliferation was evaluated using Ki67 as described above. The number of slices depends on the sample size.

glucocorticoid receptor = biological target: T1, glucocorticoid receptor (Homo sapiens, UniProt P04150); conditions: cited from earlier work
T1 sequence (P04150 1-777): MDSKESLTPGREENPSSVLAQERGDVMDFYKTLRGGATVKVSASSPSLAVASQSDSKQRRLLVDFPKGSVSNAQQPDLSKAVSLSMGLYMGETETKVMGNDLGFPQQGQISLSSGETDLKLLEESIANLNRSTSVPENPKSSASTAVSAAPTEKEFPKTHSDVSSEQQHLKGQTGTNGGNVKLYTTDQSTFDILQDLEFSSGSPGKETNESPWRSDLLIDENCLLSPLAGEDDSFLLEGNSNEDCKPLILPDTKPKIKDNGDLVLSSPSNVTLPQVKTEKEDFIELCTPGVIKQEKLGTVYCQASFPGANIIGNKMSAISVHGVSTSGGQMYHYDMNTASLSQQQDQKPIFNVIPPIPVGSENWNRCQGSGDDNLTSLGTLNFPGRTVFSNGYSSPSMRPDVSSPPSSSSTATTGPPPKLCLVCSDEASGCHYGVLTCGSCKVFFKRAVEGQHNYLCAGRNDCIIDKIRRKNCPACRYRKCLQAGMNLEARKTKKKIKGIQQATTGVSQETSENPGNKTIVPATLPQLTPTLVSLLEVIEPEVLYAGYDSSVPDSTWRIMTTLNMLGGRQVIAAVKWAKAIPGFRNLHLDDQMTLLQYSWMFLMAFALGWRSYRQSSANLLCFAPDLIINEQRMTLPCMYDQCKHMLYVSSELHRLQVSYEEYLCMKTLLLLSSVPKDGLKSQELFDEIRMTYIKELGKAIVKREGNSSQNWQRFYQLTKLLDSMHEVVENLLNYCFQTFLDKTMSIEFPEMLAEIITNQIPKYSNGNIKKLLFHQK

IBH-6-pSG5 tumors = test: Xenograft in nude mice; assay type: in vivo, human; conditions: MFP 10 mg/kg/day; p<0.001
Text: BH-6 cell line was developed from an invasive ductal breast carcinoma (1). IBH-6 cells express basal levels of hormone receptors, they are tumorigenic and in vivo express higher levels of PRB than PRA (2). Cells were transfected with human PRB, PRA (pSG5-PRB, pSG5-PRA, kindly provided by K. Horwitz) or with the empty vector (pSG5), together with a plasmid encoding the neomycin resistance gene pIRES-N1(3), using Lipofectamine transfection reagent (Invitrogen) following the manufacturer's instructions. Transfected and selected cells were cultured in medium supplemented with […] G418 (neomycin analogue, GIBCO). The expression of PRB and PRA were analyzed by western blot and immunofluorescence (using Ab7 and Ab6 antibodies from Thermo Fisher). T47D-YA or YB were kindly provided by K. Horwitz and cultured as previously described (4).
Transfected and selected cells were grown up to confluence, washed with PBS, detached with 0.25% trypsin, centrifuged at 1000 rpm for 10 min and resuspended in a final concentration of 10^6 (IBH-6) or 5×10^6 (T47D) cells per 100 μl of culture medium. The cells were sc inoculated into the right flank of nu/nu (IBH-6) or NOD/LtSz-scid/IL-2Rgamma null (T47D-YA or -YB cells) female mice. […]

[1] = test system: prostate and ovarian cancer xenografts; conditions: 50 mg/kg/day; cited from earlier work
[2] = test system: primary cultures of responsive tumors; conditions: cited from earlier work

Structure (SMILES): CC#C[C@]1(O)CC[C@H]2[C@@H]3CCC4=CC(=O)CCC4=C3[C@@H](c3ccc(N(C)C)cc3)C[C@@]21C [RU-486, mifepristone]
- Ki67 (breast cancer samples; 1 PR negative case): no inhibition was observed
- Ki67 (breast cancer samples; 1 case PRA/PRB lower than 1): significant inhibition
- Ki67 (breast cancer samples; 2 cases PRA/PRB lower than 1): no inhibition was observed
- Ki67 (breast cancer samples; 3 cases PRA/PRB high): significant inhibition of Ki67
- Ki67, stimulation (breast cancer samples; PRA/PRB lower than 1, FIG. 25): significant stimulation
- antiglucocorticoid activity (glucocorticoid receptor): antiglucocorticoid effects, albeit at concentrations higher than those needed for its antiprogestin activity
- in vivo growth (IBH-6-pSG5 tumors): stimulated
- xenograft growth [1]: inhibitory
- MPA-induced or FGF2-induced cell proliferation ([2]; 1-100 nM): inhibited MPA-induced or FGF2-induced cell proliferation
- cell proliferation at very low concentrations ([2]; 10-12 M): stimulate cell proliferation
